The values that follow come from patent US8168233B2 (Amylin Pharmaceuticals, Inc., priority 2002, dated 2012).

The term pEC50 denotes −log10 of the EC50, conventionally taken in molar units.

pEC50: −log10 of the molar value. Where no end group is shown, it is not given here.

One data set concerns soleus muscle. The conditions noted are these: read-out: EC50 in the soleus muscle assay; typical range of amylin preparations; […] insulin.
Data set [1] deals with caerulein-induced pancreatitis in ICR(CD-1) male mice. Description: Effect of amylin on caerulein-induced pancreatitis (plasma amylase). The data set is classed as in vivo. Conditions: amylin at levels as low as 0.01 μg injected at t=−5 min; plasma at 9 hours after first caerulein injection. How it is done: Male ICR mice, weighing approximately 20 g, were fasted overnight and throughout the experiment, but were allowed access to water ad libitum. […] At t=0, 0.01 μg/kg of caerulein in all but the normal group of mice. The dosing regimen for caerulein was repeated 3 times at 2 hour intervals. At t=9 hours, i.e., 9 hours after the first caerulein injection, the mice were bleed (orbital sinus) and the plasma assayed for amylase (Amylase 3 assay kit, Sigma Diagnostics Catalog #577-3, Sigma Diagnostics, St. Louis, Mo., USA).

Data set [2] has as its system pancreatic enzyme secretion. The conditions noted are these: rat model, doses resulting in physiological plasma concentrations; cited from earlier work.
For data set [3] the following is noted: human, in vivo; cited from earlier work.
For the next data set, the system named is rat pancreas. Description: Inhibition of CCK-8 stimulated lipase and amylase secretion in rat pancreas (pancreatic juice collection in anesthetized rats). The conditions noted are these: for Amylase, % from CCK-8 stimulated / Lipase, % from CCK-8 stimulated / Pancreatic flow, % from CCK-8 stimulated: decrease versus CCK-8 alone. Format: in vivo. How it is done: Tracheotomy and cannulation of the right femoral artery were performed and body temperature was controlled with a thermoregulator (Model 73A, YSI, Yellow Springs, Ohio, USA) that switched a heated operating table. The femoral arterial line, used for blood sampling, was perfused with heparinized saline (2 u/ml) and connected to a pressure transducer for blood pressure recording (Spectramed P23XL transducer, Model 13-4615-58 amplifier, Gould, Cleveland, Ohio, USA). Through a midline incision two polyethylene cannulae were inserted into the common bile-pancreatic duct at a point about 0.5 cm above where the duct enters the pancreas. The first cannula was inserted up toward the liver to collect bile. The other end of this cannula was placed into the duodenum through a small incision in the duodenum. Thus, bile flowed directly from the liver to the small intestine, being shunted away from the pancreas completely.
A second polyethylene cannula was inserted into the common bile-pancreatic duct near the first but in the opposite direction to collect pancreatic juice. The other end of the pancreatic duct was tied off with a suture just at the point where it enters the duodenum, forcing any pancreatic juice produced to flow through the second cannula for collection. Pancreatic juice was collected every 15 min from −30 to 90 min. […] The volume of juice was measured and aliquots taken for enzymes determination. Amylase and lipase, which are secreted in pancreatic juice in an active form, were tested using diagnostic kits (Lipase-PS assay kit, Sigma Diagnostics Catalog #805-A and Amylase 3 assay kit, Sigma Diagnostics Catalog #577-3, Sigma Diagnostics, St. Louis, Mo., USA). To perform both assays, pancreatic juice was diluted with saline in proportion 1:2000. Activity of enzymes was expressed in units per 15 min (activity in pancreatic juice collected every 15 min).

Data set [4] in a line: Amylin activity in vivo in treated test animals (hyperlactemia followed by hyperglycemia). Conditions: e.g., provoking marked hyperlactemia followed by hyperglycemia.
Setting [5] is: Amylin 1 μg s.c. alone, no CCK-8.
Where [6] appears, read: Amylin 10 μg s.c. alone, no CCK-8.
Setting [7] is: CCK-8 1 μg and Amylin 0.1 μg s.c.
[8] abbreviates: CCK-8 1 μg and Amylin 0.3 μg s.c.
[9] abbreviates: CCK-8 1 μg and Amylin 1.0 μg s.c.
Setting [10] is: CCK-8 1 μg and Amylin 10.0 μg s.c.
[11] abbreviates: s.c. amylin with CCK-8 1 μg, dose-dependent.
Where [12] appears, read: ±0.09 log units, first ED50 sentence of b123.
Where [13] appears, read: ±0.09 log units, second ED50 sentence of b123.

Experimental for soleus muscle: The tendons of the muscles are ligated before attachment to stainless steel clips. […] Flasks are sealed and gassed continuously with O2 and CO2 in the ratio 19:1 (v/v). After pre-incubation of muscles in this medium for 30 min at 37° C. in an oscillating water bath, the muscles strips are transferred to similar vials containing identical medium (except pyruvate) with added [U-^14C] glucose (0.5 μCi/ml) and insulin (100 μU/ml). […] At the end of the incubation period, muscles are blotted and rapidly frozen in liquid N2. The concentration of lactate in the incubation medium can be determined spectrophotometrically and [U-^14C]glucose incorporation in glycogen measured.
Male Harlan Sprague-Dawley rats of approximately 200 g mass were used in order to maintain mass of the split soleus muscle less than 40 mg. The animals were fasted for 4 hours prior to sacrifice by decapitation. The skin was stripped from the lower limb which was then pinned out on corkboard. The tendo achilles was cut just above os calcis and m. gastrocnemius reflected out from the posterior aspect of the tibia. […]
^14C-glycogen determination was performed in a 7 mL scintillation vial. […] The remaining glycogen was redissolved in 1 mL water and 4 mL scintillation fluid and counted for ^14C. […]

On to `CC[C@H](C)[C@H](NC(=O)[C@H](C)NC(=O)CNC(=O)[C@H](Cc1ccccc1)NC(=O)[C@H](CC(N)=O)NC(=O)[C@H](CC(N)=O)NC(=O)[C@H](CO)NC(=O)[C@H](CO)NC(=O)[C@H](Cc1c[nH]cn1)NC(=O)[C@@H](NC(=O)[C@H](CC(C)C)NC(=O)[C@H](Cc1ccccc1)NC(=O)[C@H](CC(N)=O)NC(=O)[C@H](C)NC(=O)[C@H](CC(C)C)NC(=O)[C@H](CCCNC(=N)N)NC(=O)[C@H](CCC(N)=O)NC(=O)[C@@H](NC(=O)[C@H](C)NC(=O)[C@@H]1CSSC[C@H](NC(=O)[C@@H](N)CCCCN)C(=O)N[C@@H](CC(N)=O)C(=O)N[C@@H]([C@@H](C)O)C(=O)N[C@@H](C)C(=O)N[C@@H]([C@@H](C)O)C(=O)N1)[C@@H](C)O)C(C)C)C(=O)N[C@@H](CC(C)C)C(=O)N[C@@H](CO)C(=O)N[C@@H](CO)C(=O)N[C@H](C(=O)N[C@@H](CC(N)=O)C(=O)N[C@H](C(=O)NCC(=O)N[C@@H](CO)C(=O)N[C@@H](CC(N)=O)C(=O)N[C@H](C(=O)N[C@@H](Cc1ccc(O)cc1)C(N)=O)[C@@H](C)O)C(C)C)[C@@H](C)O` [human amylin], for which, in the data set with soleus muscle, the negative-log EC50 (pEC50) was 8.00 to 9.00.

For the molecule “Amylin: rat amylin (AR905-80) in Example II; amylin (AC128, Amylin Pharmaceuticals, Inc.) in Example I; 37 amino acid peptide hormone (KCNTATCATQRLANFLVHSSNNFGAILSSTNVGSNTY)”, in data set [1], the “reduction of elevated plasma amylase produced by caerulein” value is given as “effectively reduce the elevated levels of plasma amylase”. In addition, the “effect on basal pancreatic enzyme secretion” value in data set [2] is “no effect”. The tolerability result in data set [3] is given as “well tolerated”. Moreover, in the data set with rat pancreas (setting [5]), the Amylase was 80.21 ± 35.71 U/45 min, the Lipase amounted to 149.51 ± 86.79 U/45 min and the Pancreatic flow turned out to be 30 ± 6 μl/45 min. Also, in the data set with rat pancreas (setting [6]), the Amylase came to 61.95 ± 24.51 U/45 min, the Lipase is on record as 64.67 ± 21.59 U/45 min and the Pancreatic flow is reported as 13 ± 4 μl/45 min. In the data set on rat pancreas (setting [7]), the Amylase is on record as 340.98 ± 40.91 U/45 min; the Lipase is 472.82 ± 58.67 U/45 min; the Pancreatic flow amounted to 78 ± 8 μl/45 min; the “Amylase, % from CCK-8 stimulated” value worked out at 25.83%. Besides, in the data set on rat pancreas (setting [7]), the “Lipase, % from CCK-8 stimulated” value is listed as 34.65% and the “Pancreatic flow, % from CCK-8 stimulated” value was found to be 21.21%. Further, in the data set with rat pancreas (setting [8]), the Amylase is on record as 271.73 ± 48.38 U/45 min; the Lipase is 309.30 ± 74.31 U/45 min; the Pancreatic flow was found to be 67 ± 6 μl/45 min; the “Amylase, % from CCK-8 stimulated” value worked out at 40.90%. Also, in the data set on rat pancreas (setting [8]), the “Lipase, % from CCK-8 stimulated” value was determined as 57.25% and the “Pancreatic flow, % from CCK-8 stimulated” value is 32.32%. Further, in the data set with rat pancreas (setting [9]), the Amylase is listed as 193.93 ± 34.40 U/45 min; the Lipase worked out at 232.41 ± 58.01 U/45 min; the Pancreatic flow turned out to be 58 ± 12 μl/45 min; the “Amylase, % from CCK-8 stimulated” value amounted to 57.32%. In addition, in the data set on rat pancreas (setting [9]), the “Lipase, % from CCK-8 stimulated” value amounted to 67.87% and the “Pancreatic flow, % from CCK-8 stimulated” value was 41.41%. In the data set with rat pancreas (setting [10]), the Amylase stood at 353.68 ± 78.85 U/45 min; the Lipase was 370.65 ± 85.67 U/45 min; the Pancreatic flow is on record as 90 ± 13 μl/45 min; the “Amylase, % from CCK-8 stimulated” value was determined as 23.07%. In the data set on rat pancreas (setting [10]), the “Lipase, % from CCK-8 stimulated” value is listed as 48.77% and the “Pancreatic flow, % from CCK-8 stimulated” value is listed as 9.09%. For the same molecule, in the data set with rat pancreas (setting [11]), the “inhibition of cholecystokinin stimulated pancreatic amylase activity (maximum)” value is listed as “up to 67.9%” and the “inhibition of secretion of cholecystokinin stimulated pancreatic lipase (maximum)” value is recorded as “up to 57.3%”. Besides, in the data set on rat pancreas (setting [12]), the “ED50 for suppression of pancreatic amylase activity” value amounted to 129 pmol/kg and the “ED50 for suppression of pancreatic lipase activity” value is given as 129 pmol/kg. In addition, in the data set on rat pancreas (setting [13]), the “ED50 for suppression of CCK-8 stimulated pancreatic amylase activity” value amounted to 123 pmol/kg and the “ED50 for suppression of CCK-8 stimulated pancreatic lipase activity” value is 123 pmol/kg.

For the molecule “^28Pro-h-amylin (KCNTATCATQRLANFLVHSSNNFGAILPSTNVGSNTY)”, in data set [4], the “amylin activity in vivo” value is recorded as “show amylin activity in vivo”.

For “cholecystokinin octapeptide [CCK-8, reference compound]”, in the data set with rat pancreas (CCK-8 1 μg s.c. alone), the Amylase turned out to be 459.76 ± 52.49 U/45 min, the Lipase is 723.56 ± 100.56 U/45 min and the Pancreatic flow is 99 ± 13 μl/45 min.

With “des-^1Lys-h-amylin (CNTATCATQRLANFLVHSSNNFGAILSSTNVGSNTY; ends and bridges not checked; cysteine pairing not given here; UniProt P10997 35-70, looked up, fragment)”, the “amylin activity in vivo” value in data set [4] is listed as “show amylin activity in vivo”.

As to des-^1Lys^18Arg^25,28Pro-h-amylin, the “amylin activity in vivo” value in data set [4] was “show amylin activity in vivo”.
